Reference: ChEMBL document CHEMBL3822358 (J Med Chem, 2016)

Assays:
[1] = Cmax in CD rat at 10 mg/kg, po by LC-MS/MS analysis; format: ADME, organism-based; design: dose 10 mg/kg, route oral; conditions: in vivo
[2] = Half life in CD rat at 10 mg/kg, po by LC-MS/MS analysis; format: ADME, organism-based; conditions: in vivo
[3] = target: T1, ALK tyrosine kinase receptor (Homo sapiens, UniProt Q9UM73); assay: Inhibition of ALK phosphorylation in mouse xenografted with human KARPAS299 cells assessed as p-ALK level at 25 mg/kg, po administered as single dose measured after 24 hrs relative to 2 hrs vehicle-treated tumor; format: organism-based; design: scale not given: the % may be the effect or the level left; conditions: KARPAS-299
[4] = Half life in mouse at 10 mg/kg, po by LC-MS/MS analysis; format: ADME, organism-based; conditions: in vivo
[5] = target: T1, ALK tyrosine kinase receptor
Target sequence in this assay (Q9UM73 whole entry): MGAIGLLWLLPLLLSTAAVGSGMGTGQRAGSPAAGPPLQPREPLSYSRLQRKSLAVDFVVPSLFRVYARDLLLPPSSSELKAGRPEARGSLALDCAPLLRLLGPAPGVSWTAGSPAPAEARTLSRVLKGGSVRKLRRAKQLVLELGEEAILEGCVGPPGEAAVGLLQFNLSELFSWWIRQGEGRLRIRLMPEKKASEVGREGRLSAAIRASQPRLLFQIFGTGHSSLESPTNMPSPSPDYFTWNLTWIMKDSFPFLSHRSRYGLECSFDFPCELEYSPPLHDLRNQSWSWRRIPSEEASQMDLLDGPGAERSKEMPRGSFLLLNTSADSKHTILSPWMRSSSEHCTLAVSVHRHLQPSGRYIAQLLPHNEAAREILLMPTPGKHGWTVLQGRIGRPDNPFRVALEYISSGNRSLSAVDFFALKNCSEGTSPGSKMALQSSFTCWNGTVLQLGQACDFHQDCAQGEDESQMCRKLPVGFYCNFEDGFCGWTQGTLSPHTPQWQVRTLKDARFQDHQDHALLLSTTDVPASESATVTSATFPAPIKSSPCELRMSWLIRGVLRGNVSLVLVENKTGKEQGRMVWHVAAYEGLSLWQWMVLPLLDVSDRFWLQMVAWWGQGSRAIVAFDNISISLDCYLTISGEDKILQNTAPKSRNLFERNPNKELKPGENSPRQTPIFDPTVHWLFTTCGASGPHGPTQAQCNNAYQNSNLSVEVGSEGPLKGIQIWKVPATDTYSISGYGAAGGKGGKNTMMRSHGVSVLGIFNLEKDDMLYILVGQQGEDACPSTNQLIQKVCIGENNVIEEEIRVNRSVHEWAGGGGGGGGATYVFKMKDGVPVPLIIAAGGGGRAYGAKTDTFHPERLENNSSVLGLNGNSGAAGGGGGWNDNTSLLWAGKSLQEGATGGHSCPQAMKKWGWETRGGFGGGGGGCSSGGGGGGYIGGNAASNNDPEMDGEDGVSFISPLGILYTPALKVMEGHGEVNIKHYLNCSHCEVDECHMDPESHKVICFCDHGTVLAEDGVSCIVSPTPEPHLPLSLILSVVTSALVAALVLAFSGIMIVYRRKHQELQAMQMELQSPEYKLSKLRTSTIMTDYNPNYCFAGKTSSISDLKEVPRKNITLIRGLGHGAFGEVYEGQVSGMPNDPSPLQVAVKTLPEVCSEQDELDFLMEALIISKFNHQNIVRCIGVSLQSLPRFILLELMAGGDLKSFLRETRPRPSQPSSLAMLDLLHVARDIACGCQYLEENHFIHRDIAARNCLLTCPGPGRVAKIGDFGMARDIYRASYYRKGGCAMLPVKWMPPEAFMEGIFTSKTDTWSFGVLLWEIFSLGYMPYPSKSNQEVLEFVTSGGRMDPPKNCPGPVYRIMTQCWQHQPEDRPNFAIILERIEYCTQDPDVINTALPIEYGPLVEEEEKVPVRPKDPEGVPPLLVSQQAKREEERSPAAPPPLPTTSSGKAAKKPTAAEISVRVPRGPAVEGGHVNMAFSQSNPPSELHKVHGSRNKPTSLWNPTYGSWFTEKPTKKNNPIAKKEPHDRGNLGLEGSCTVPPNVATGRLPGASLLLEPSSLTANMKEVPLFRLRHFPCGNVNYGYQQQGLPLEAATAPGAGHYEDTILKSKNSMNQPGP
Description: Inhibition of human ALK using poly[Glu:Tyr] (4:1) as substrate and [gamma-33P]ATP measured after 1 hr

[6] = Tmax in CD rat at 10 mg/kg, po by LC-MS/MS analysis; format: ADME, organism-based; conditions: in vivo
[7] = AUC (0 to infinity) in CD rat at 10 mg/kg, po by LC-MS/MS analysis; format: ADME, organism-based; design: dose 10 mg/kg, route oral, time infinity; conditions: in vivo
[8] = Half life in CD rat at 3 mg/kg, iv by LC-MS/MS analysis; format: ADME, organism-based; conditions: CD, in vivo
Insulin receptor = Insulin receptor (Homo sapiens, UniProt P06213)
Description: Inhibition of human InsR using myelin basic protein as substrate and [gamma-33P]ATP measured after 1 hr

[9] = Clearance in CD rat at 3 mg/kg, iv by LC-MS/MS analysis; format: ADME, organism-based; conditions: in vivo
[10] = AUC (0 to infinity) in CD rat at 3 mg/kg, iv by LC-MS/MS analysis; format: ADME, organism-based; design: dose 3 mg/kg, time infinity, route intravenous; conditions: CD, in vivo
[11] = Volume of distribution at steady state in CD rat at 3 mg/kg, iv by LC-MS/MS analysis; format: ADME, organism-based; conditions: CD, in vivo, read-out: Vdss
[12] = target: T1, ALK tyrosine kinase receptor; assay: Inhibition of ALK phosphorylation in mouse xenografted with human KARPAS299 cells assessed as p-ALK level at 25 mg/kg, po administered as single dose measured after 10 hrs relative to 2 hrs vehicle-treated tumor; format: organism-based; design: scale not given: the % may be the effect or the level left; conditions: KARPAS-299
cells [13] = conditions: Homo sapiens, U-937, 72 h
Description: Antiproliferative activity against human ALK-negative U937 cells assessed as reduction in cell viability measured after 72 hrs by CellTiter 96 aqueous one solution cell proliferation assay

[14] = AUC (0 to 24 hrs) in mouse at 10 mg/kg, po by LC-MS/MS analysis; format: ADME, organism-based; design: time < 24 hr, dose 10 mg/kg, route oral; conditions: in vivo
cells [15] = conditions: Homo sapiens, KARPAS-299, 72 h
Description: Antiproliferative activity against human ALK-positive KARPAS299 cells assessed as reduction in cell viability measured after 72 hrs by CellTiter 96 aqueous one solution cell proliferation assay

[16] = Oral bioavailability in CD rat at 10 mg/kg by LC-MS/MS analysis; format: ADME, organism-based; conditions: in vivo
[17] = target: T1, ALK tyrosine kinase receptor; assay: Inhibition of ALK phosphorylation in mouse xenografted with human KARPAS299 cells assessed as p-ALK level at 25 mg/kg, po administered as single dose measured after 16 hrs relative to 2 hrs vehicle-treated tumor; format: organism-based; design: scale not given: the % may be the effect or the level left; conditions: KARPAS-299
[18] = Cmax in mouse at 10 mg/kg, po by LC-MS/MS analysis; format: ADME, organism-based; design: dose 10 mg/kg, route oral; conditions: in vivo
[19] = target: Insulin-like growth factor 1 receptor (Homo sapiens, UniProt P08069)
animal or person [20] = conditions: Homo sapiens, KARPAS-299, po, 312 h, read-out: TGI
Description: Antitumor activity against human KARPAS299 cells expressing NMP-ALK fusion protein xenografted in SCID/beige mouse assessed as tumor growth inhibition at 50 mg/kg, po administered once daily for 13 days relative to untreated control

animal or person [21] = conditions: Homo sapiens, KARPAS-299, po, 312 h, read-out: TGI; remark: listed apart in the source
Description: Antitumor activity against human KARPAS299 cells expressing NMP-ALK fusion protein xenografted in SCID/beige mouse assessed as tumor growth inhibition at 25 mg/kg, po administered once daily for 13 days relative to untreated control

[22] = target: T1, ALK tyrosine kinase receptor; assay: Inhibition of ALK phosphorylation in mouse xenografted with human KARPAS299 cells assessed as p-ALK level at 25 mg/kg, po administered as single dose measured after 8 hrs relative to 2 hrs vehicle-treated tumor; format: organism-based; design: scale not given: the % may be the effect or the level left; conditions: KARPAS-299
animal or person [23] = conditions: Homo sapiens, KARPAS-299, po, 312 h, read-out: TGI; remark: listed apart in the source
Description: Antitumor activity against human KARPAS299 cells expressing NMP-ALK fusion protein xenografted in SCID/beige mouse assessed as tumor growth inhibition at 10 mg/kg, po administered once daily for 13 days relative to untreated control

Insulin receptor, sequence (P06213 28-758 limits assumed): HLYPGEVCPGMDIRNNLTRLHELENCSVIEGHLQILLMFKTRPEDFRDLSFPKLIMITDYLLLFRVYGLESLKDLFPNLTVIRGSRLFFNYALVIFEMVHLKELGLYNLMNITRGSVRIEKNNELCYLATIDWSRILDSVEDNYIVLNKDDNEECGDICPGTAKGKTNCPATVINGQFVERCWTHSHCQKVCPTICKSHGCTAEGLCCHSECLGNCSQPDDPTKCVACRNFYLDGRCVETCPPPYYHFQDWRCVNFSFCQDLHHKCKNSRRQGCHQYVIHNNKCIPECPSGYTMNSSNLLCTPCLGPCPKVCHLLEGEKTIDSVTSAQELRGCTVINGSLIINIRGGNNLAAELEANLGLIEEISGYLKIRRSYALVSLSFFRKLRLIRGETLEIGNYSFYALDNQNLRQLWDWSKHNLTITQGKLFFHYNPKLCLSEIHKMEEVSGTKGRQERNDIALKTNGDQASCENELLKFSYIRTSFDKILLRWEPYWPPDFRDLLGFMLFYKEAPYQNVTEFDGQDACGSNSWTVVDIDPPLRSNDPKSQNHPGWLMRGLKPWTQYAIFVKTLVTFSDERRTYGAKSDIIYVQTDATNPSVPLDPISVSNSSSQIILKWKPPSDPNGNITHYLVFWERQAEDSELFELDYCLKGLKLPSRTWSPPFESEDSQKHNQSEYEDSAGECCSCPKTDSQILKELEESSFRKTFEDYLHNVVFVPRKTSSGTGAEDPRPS
Insulin receptor, sequence (P06213 763-1382 limits assumed): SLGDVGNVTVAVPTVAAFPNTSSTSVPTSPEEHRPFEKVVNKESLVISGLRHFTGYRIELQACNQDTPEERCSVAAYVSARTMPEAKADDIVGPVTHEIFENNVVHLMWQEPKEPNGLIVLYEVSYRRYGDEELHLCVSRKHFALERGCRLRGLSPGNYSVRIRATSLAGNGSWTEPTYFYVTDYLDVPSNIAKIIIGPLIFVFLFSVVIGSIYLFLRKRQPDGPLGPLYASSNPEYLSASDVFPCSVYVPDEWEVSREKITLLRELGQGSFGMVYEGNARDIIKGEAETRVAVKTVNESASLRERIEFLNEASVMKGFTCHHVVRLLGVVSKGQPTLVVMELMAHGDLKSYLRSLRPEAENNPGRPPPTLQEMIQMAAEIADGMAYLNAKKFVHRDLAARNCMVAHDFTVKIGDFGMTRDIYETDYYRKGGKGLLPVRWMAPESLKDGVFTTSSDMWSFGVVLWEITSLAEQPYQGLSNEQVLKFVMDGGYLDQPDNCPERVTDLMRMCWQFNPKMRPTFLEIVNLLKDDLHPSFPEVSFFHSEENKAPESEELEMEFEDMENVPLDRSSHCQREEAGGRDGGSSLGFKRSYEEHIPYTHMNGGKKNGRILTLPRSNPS
Insulin-like growth factor 1 receptor, sequence (P08069 31-736 limits assumed): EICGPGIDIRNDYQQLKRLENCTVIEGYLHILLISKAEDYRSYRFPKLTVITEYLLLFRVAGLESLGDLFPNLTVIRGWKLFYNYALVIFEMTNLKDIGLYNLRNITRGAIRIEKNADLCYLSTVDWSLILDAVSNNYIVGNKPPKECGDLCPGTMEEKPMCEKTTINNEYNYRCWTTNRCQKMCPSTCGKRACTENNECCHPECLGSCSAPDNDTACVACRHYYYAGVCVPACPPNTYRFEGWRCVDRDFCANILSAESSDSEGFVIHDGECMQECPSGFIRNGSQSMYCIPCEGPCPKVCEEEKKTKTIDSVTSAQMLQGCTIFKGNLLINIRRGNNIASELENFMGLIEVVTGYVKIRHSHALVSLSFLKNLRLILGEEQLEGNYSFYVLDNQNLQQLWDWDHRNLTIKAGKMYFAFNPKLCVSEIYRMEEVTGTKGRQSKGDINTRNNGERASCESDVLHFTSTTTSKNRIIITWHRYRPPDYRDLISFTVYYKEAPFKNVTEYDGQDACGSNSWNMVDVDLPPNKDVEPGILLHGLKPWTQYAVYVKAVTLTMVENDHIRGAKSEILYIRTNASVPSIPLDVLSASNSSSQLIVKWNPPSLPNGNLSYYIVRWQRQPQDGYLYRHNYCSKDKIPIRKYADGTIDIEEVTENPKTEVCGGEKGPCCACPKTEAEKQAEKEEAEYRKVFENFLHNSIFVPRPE
Insulin-like growth factor 1 receptor, sequence (P08069 741-1367 limits assumed): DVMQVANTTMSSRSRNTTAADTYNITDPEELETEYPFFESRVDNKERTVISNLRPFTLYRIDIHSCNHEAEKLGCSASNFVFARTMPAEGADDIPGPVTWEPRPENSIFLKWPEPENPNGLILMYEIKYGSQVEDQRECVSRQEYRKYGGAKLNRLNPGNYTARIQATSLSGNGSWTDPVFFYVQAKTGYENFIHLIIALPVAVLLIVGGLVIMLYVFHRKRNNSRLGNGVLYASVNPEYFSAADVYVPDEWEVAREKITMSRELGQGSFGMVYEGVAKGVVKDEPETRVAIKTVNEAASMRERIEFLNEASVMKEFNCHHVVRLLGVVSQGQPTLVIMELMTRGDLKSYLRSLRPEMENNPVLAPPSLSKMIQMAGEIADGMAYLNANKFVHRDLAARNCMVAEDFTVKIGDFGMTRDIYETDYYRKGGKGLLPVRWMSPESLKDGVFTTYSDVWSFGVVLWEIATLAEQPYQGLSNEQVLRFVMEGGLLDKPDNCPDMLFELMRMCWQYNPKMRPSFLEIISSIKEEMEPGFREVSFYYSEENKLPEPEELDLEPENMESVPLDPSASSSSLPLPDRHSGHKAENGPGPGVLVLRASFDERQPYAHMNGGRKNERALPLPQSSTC

Cmax [1] [ng/mL] | half-life [2] [h] | Activity [3] [%] | half-life [4] [h] | IC50 [5] [nM] | Tmax [6] [h] | AUC(0-inf) [7] [ng·h/mL] | half-life [8] [h] | IC50 (Insulin receptor) [nM] | clearance [9] [mL/min/kg] | AUC(0-inf) [10] [ng·h/mL] | Vd [11] [L/kg] | Activity [12] [%] | IC50 (cells [13]) [nM] | AUC(0-t) at 24 h [14] [ng·h/mL] | IC50 (cells [15]) [nM] | bioavailability [16] [%] | Activity [17] [%] | Cmax [18] [ng/mL] | IC50 [19] [nM] | Structure (SMILES) | also measured
659 | 3.9 | 160 | 1.6 | 0.54 | 4 | 9220 | 3.6 | 343 | 9.83 | 5040 | 2.89 | 23 | 4520 | 951 | 55.5 | 55 | 125 | 184 | 86.5 | COc1cc(OC2CCN(C)CC2)ccc1Nc1ncc(Cl)c(Nc2ccccc2P(C)(C)=O)n1 | 
772 | 2.7 | 168 | 2.2 | 0.36 | 0.25 | 9720 | 5.6 | 171 | 10.7 | 4550 | 2.74 |  | 7230 | 13300 | 70.4 | 64 | 25 | 2940 | 26.9 | COc1cc(N2CCC(O)CC2)ccc1Nc1ncc(Cl)c(Nc2ccccc2P(C)(C)=O)n1 | inhibition in vivo at 50 mg/kg (animal or person [20]): 67%; inhibition in vivo at 25 mg/kg (animal or person [21]): 85%; Activity [22]: 41%; inhibition in vivo at 10 mg/kg (animal or person [23]): 96%
109 | 3.7 | 51 | 3.1 | 0.53 | 4 | 1350 | 4.7 | 85.3 | 22.7 | 2170 | 6.61 | 2 | 1680 | 3230 | 21.1 | 19 | 39 | 411 | 20.3 | COc1cc(N2CCC(N3CCCC3)CC2)ccc1Nc1ncc(Cl)c(Nc2ccccc2P(C)(C)=O)n1 | inhibition in vivo at 50 mg/kg (animal or person [20]): 26%; inhibition in vivo at 25 mg/kg (animal or person [21]): 52%; inhibition in vivo at 10 mg/kg (animal or person [23]): 76%
